{"source": "PubChem BioAssay AID1259418", "about": "(Broad Institute, 2018)", "note": "Where “and” joins values, the source holds several entries; their conditions need not be identical. Identical values can stand only once. Records with an inconclusive call do not appear. Calls of active or inactive are those of the source.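 The calls were made as follows: active = fitted half-maximal concentration of signal decrease at or below twice the sample's top tested concentration; inconclusive = flat curve between -70 and -30 percent, or poor fit; inactive = flat within 30 percent, signal rise, or potency above limit.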", "data": [{"molecular_target": "T. gondii ME49Luc in IFN-y HeLa, luciferase, 72 h", "test": "T. gondii growth inhibition with IFN-gamma, dose response, cell-based, ME49Luc, HeLa, luciferase, 72 h (AID 1259418)", "values": [{"compound": "Cc1ccc(S(=O)(=O)N2CCC3(CC2)NCCN=C3NCc2ccccc2)c(C)c1", "AC50": "19.2 µM"}, {"compound": "Cc1nc(OCC(=O)Nc2ccc(Br)cc2F)c2ccccc2n1", "AC50": "21 µM"}, {"compound": "COc1cccc(-c2nc3c(s2)CN(S(=O)(=O)c2ccc(C)cc2)CC3)c1", "AC50": "25.9 µM"}, {"compound": "CCSc1ccc(-c2sc(-c3ccc(OC)cc3)nc2C)nn1", "AC50": "> 39 µM (inactive)"}, {"compound": "Cc1ccc(-n2ncc3c(NCc4cccc(Cl)c4)ncnc32)c(C)c1", "AC50": "22.3 µM"}, {"compound": "OC[C@@H]1Nc2ccc(-c3cccc(F)c3)cc2[C@@H]2[C@H]1CCN2Cc1ccc(F)cc1", "AC50": "18.5 µM"}, {"compound": "COc1ccc(-c2nc(N3CCC4(CC3)OCCO4)c3ccccc3n2)cc1", "AC50": "20.1 µM"}, {"compound": "Clc1cccc(CN2CCC3(COCc4cnc(-c5ccccc5)nc43)C2)c1", "note": "(stereo not drawn)", "AC50": "18.2 µM and 10.4 µM"}, {"compound": "COc1ccc(-c2nc(NCCN(C)C3CCCCC3)c3ccccc3n2)cc1", "AC50": "3.36 µM"}, {"compound": "Cc1ccccc1S(=O)(=O)N1CC[C@@H]2[C@H]1c1cc(-c3cccc(F)c3)ccc1N(C)[C@H]2CO", "AC50": "17.7 µM"}, {"compound": "Cc1nc(OCC(=O)Nc2c(C)cccc2C)c2ccccc2n1", "AC50": "28.8 µM"}, {"compound": "CC(C)n1c(C(=O)Nc2cccc(F)c2)nc2c1CCN(Cc1ccccc1)C2", "AC50": "9.4 µM"}, {"compound": "COc1ccccc1-c1nc(C)c(-c2ccc(SCc3ccccc3Cl)nn2)s1", "AC50": "> 39 µM (inactive)"}, {"compound": "Cc1ccc(S(=O)(=O)Nc2ccc3c(c2)C(=O)N([C@H](C)CO)C[C@H](C)[C@H](CN(C)Cc2ccc(C(F)(F)F)cc2)O3)cc1", "AC50": "13.1 µM"}, {"compound": "O=C(CCC1N=C2c3ccccc3N=C(SCc3cccc(F)c3)N2C1=O)NCc1ccccc1", "note": "(stereo not drawn)", "AC50": "27.4 µM"}, {"compound": "COc1ccc2c(c1)NC1(CCN(C(=O)C3CCCCC3)CC1)c1cccn1-2", "AC50": "> 39 µM (inactive)"}, {"compound": "O=C(Nc1cccc(F)c1)N1CCCCN2[C@@H](CO)[C@@H](c3ccc(C#Cc4cccnc4)cc3)[C@@H]2C1", "AC50": "> 42 µM (inactive)"}, {"compound": "O=C(CC1Nc2c3ccccc3nc(=S)n2C1=O)N1CCN(c2ccccc2F)CC1", "note": "(stereo not drawn)", "AC50": "29.7 µM"}, {"compound": "CCCNC(=O)N1CCN(Cc2nc(-c3ccc(C)cc3)oc2C)CC1", "AC50": "26.1 µM"}, {"compound": "O=C(Nc1ccccc1)N1CC2CN(Cc3ccc(C(F)(F)F)cc3)C2C1", "note": "(stereo not drawn)", "AC50": "36.6 µM"}, {"compound": "CCC(C(=O)N1CCC2(CC1)Nc1ccc(Cl)cc1-n1cccc12)c1ccccc1", "note": "(stereo not drawn)", "AC50": "> 39 µM (inactive)"}, {"compound": "O=C(C1CCCCC1)N1C[C@@H]2N[C@H](C1)C2c1ccc(-c2ccccc2F)cc1", "note": "(stereo partly drawn)", "AC50": "16.7 µM"}, {"compound": "COc1ccccc1-c1noc(-c2nnn(Cc3nc(-c4ccccc4OC)oc3C)c2C)n1", "AC50": "> 39 µM (inactive)"}, {"compound": "COc1cc(OC)cc(C(=O)N2CCC3(CC2)Nc2cc(OC)ccc2-n2cccc23)c1", "AC50": "30.1 µM"}, {"compound": "O=S(=O)(c1ccc(Cl)s1)N1CCC2(CC1)NCCN=C2NCc1ccccc1F", "AC50": "17.9 µM"}, {"compound": "CC(C)CC(=O)N1CCC2(CC1)Nc1cc(F)ccc1-n1cccc12", "AC50": "> 39 µM (inactive)"}, {"compound": "COc1cccc(NC(=O)Nc2ccc(-c3nc(-c4ccc(C)cc4C)co3)cc2)c1", "AC50": "> 39 µM (inactive)"}, {"compound": "COc1ccccc1-c1ccc([C@@H]2[C@H](CO)N3CCCCN(C(=O)c4cccnc4)C[C@@H]23)cc1", "AC50": "17.2 µM"}, {"compound": "O=C(Nc1ccc(Cl)cc1)N1[C@@H]2CNC[C@H]1C2c1ccc(-c2ccccc2)cc1", "note": "(stereo partly drawn)", "AC50": "2.02 µM and 2.94 µM"}, {"compound": "CCc1ccc(NS(=O)(=O)c2cc3c4c(c2)CCC(=O)N4CCC3)cc1", "AC50": "37.7 µM"}, {"compound": "CCN1C(=O)CCc2cc(NC(=O)Cc3cccc(OC)c3)ccc21", "AC50": "23 µM"}, {"compound": "CC(C)Cc1ccc(S(=O)(=O)N2CCC3(CC2)NCCN=C3NCc2ccc(F)cc2)cc1", "AC50": "6.29 µM"}, {"compound": "Cc1cc(C(C)(C)CC(C)(C)C)ccc1OCCOCC[N+](C)(C)Cc1ccccc1", "AC50": "14.9 µM"}, {"compound": "COCC(=O)N1CCC2(CC1)CN(Cc1nccs1)CCO2", "AC50": "17.9 µM"}, {"compound": "COc1cccc(S(=O)(=O)N2CCCCN3[C@H](CO)[C@@H](c4ccc(C#CCC(C)C)cc4)[C@H]3C2)c1", "AC50": "24.9 µM and 10.3 µM and 9.5 µM"}, {"compound": "N#Cc1ccc(-c2ccc([C@@H]3[C@@H]4CN(S(=O)(=O)Cc5ccccc5)C[C@H]3N4)cc2)cc1", "AC50": "6.55 µM and 15.5 µM"}, {"compound": "Cc1nc(OCC(=O)NCc2ccc3c(c2)OCO3)c2ccccc2n1", "AC50": "21.2 µM"}, {"compound": "Cc1ccc(-c2csc(-c3cccn3CC(=O)NCCCN3CCCC(C)C3)n2)cc1", "note": "(stereo not drawn)", "AC50": "17.2 µM"}, {"compound": "COc1ccccc1-c1nc(CN(c2ccccc2OC)S(=O)(=O)c2ccc(C)cc2)c(C)o1", "AC50": "12.4 µM"}, {"compound": "O=C(Cc1ccccn1)N1CC(=O)N2[C@H](CO)[C@H](c3ccc(C#CCC4CCCC4)cc3)[C@H]2C1", "AC50": "19.4 µM and 8.78 µM"}, {"compound": "Cc1ccc(N2CC(NC(=O)C(=O)c3c[nH]c4ccccc34)CC2=O)cc1", "note": "(stereo not drawn)", "AC50": "> 39 µM (inactive)"}, {"compound": "COc1ccccc1C#Cc1ccc([C@H]2[C@H](CO)N3CCCCN(C(=O)C4CCC4)C[C@@H]23)cc1", "AC50": "13.5 µM and 5.77 µM"}, {"compound": "Cc1ccccc1Cn1c(CN2CCC(C(=O)N3CCCC3)CC2)cc2ccccc21", "AC50": "> 39 µM (inactive)"}, {"compound": "COc1ccccc1N(Cc1nc(-c2cccc(C)c2)oc1C)S(=O)(=O)c1ccc(C)cc1", "AC50": "9.12 µM"}, {"compound": "COCC(=O)Nc1ccc(-c2nc(-c3cc(C)ccc3C)co2)cc1", "AC50": "> 39 µM (inactive)"}, {"compound": "COc1ccc(CNC(=O)COc2nc(C)nc3ccccc23)cc1", "AC50": "> 39 µM (inactive)"}, {"compound": "CCc1ccc(S(=O)(=O)N2CCC3(CC2)NCCN=C3NCc2ccccc2)cc1", "AC50": "21.8 µM"}, {"compound": "COc1cccc(C(=O)Nc2ccc3c(c2)C(=O)N(C)[C@H]2CC[C@@H](CC(=O)N[C@@H](C)c4ccccc4)O[C@H]2CO3)c1", "AC50": "> 39 µM (inactive)"}, {"compound": "CC(=O)NC1=NN(C(C)=O)C(C)(c2ccccc2)S1", "note": "(stereo not drawn)", "AC50": "11 µM and 6.03 µM"}, {"compound": "COc1ccc(CNC2=NCCNC23CCN(S(=O)(=O)c2ccc(C(C)C)cc2)CC3)cc1", "AC50": "19.9 µM"}, {"compound": "Cc1cccc(-c2nc(CSc3nc4c(c(=O)[nH]3)CN(Cc3ccccc3)CC4)c(C)o2)c1", "AC50": "> 39 µM (inactive)"}, {"compound": "O=C(NCCc1csc(-c2ccccc2)n1)[C@H]1CCCN1C(=O)c1ccccc1", "AC50": "36.5 µM"}, {"compound": "CCc1cnc(N2[C@H](CO)[C@@H](c3ccc(C#Cc4ccccc4F)cc3)[C@@H]2C#N)s1", "AC50": "21.3 µM"}, {"compound": "O=C1CNC[C@H]2[C@@H](c3ccc(C#Cc4cccnc4)cc3)[C@@H](CO)N12", "AC50": "26.8 µM"}, {"compound": "Cc1nc2c(cnn2-c2ccccc2)c(=O)n1-c1cccc2ccccc12", "AC50": "1.32 µM"}, {"compound": "CCc1ccc(S(=O)(=O)N2CCC[C@@H]2C(=O)NCCc2csc(-c3ccccc3)n2)cc1", "AC50": "21.8 µM"}, {"compound": "O=C(CC1CCC2(CC1)CCN(c1ncc(F)cn1)CC2)N1CC=CC1", "AC50": "19.3 µM"}, {"compound": "COc1ccc(N(Cc2nc(-c3ccccc3)oc2C)S(=O)(=O)c2ccccc2C)cc1", "AC50": "11.6 µM"}, {"compound": "O=C(NCCc1csc(-c2ccccc2)n1)C1CCN(C(=O)Cc2cccc(F)c2)CC1", "AC50": "2.76 µM"}, {"compound": "Cc1cc(C)c(S(=O)(=O)N2CCC[C@@H]2C(=O)NCCc2csc(C)n2)c(C)c1", "AC50": "31.9 µM"}, {"compound": "CCOC(=O)CSC1=Nc2ccccc2C2=NC(CCC(=O)NCc3ccc(OC)cc3)C(=O)N12", "note": "(stereo not drawn)", "AC50": "27.8 µM"}, {"compound": "O=C(CCC1N=C2c3ccccc3N=C(SCc3cccc(F)c3)N2C1=O)NCc1cccs1", "note": "(stereo not drawn)", "AC50": "20.3 µM"}, {"compound": "O=C(Cc1cccnc1)N1CC(=O)N2[C@@H](CO)[C@H](c3ccc(C4=CCCCC4)cc3)[C@@H]2C1", "AC50": "> 39 µM (inactive)"}, {"compound": "Cc1ccc(NC(=O)N2CCN(Cc3nc(-c4cccc(Cl)c4)oc3C)CC2)cc1F", "AC50": "7.24 µM"}, {"compound": "COc1cc(Nc2nc(SCc3ccccc3F)nc3ccccc23)cc(OC)c1OC", "AC50": "20.6 µM"}, {"compound": "CC(C)(C)NC(=O)[C@@H]1CC2CCCCC2CN1C[C@@H](O)[C@H](Cc1ccccc1)NC(=O)[C@H](CC(N)=O)NC(=O)c1ccc2ccccc2n1", "note": "(stereo partly drawn)", "AC50": "17.8 µM"}, {"compound": "COc1ccccc1S(=O)(=O)N1CC[C@@H]2[C@H]1c1cc(-c3cccc(C#N)c3)ccc1N(C)[C@H]2CO", "AC50": "18.9 µM"}, {"compound": "Cc1ccc(CNc2nc(-c3ccc(Cl)cc3)nc3ccccc23)cc1", "AC50": "37 µM"}]}]}
